Legend:
[1] = system: Pneumocystis carinii; conditions: cited from earlier work
[2] = system: Pneumocystis carinii; conditions: in vivo; cited from earlier work
[3] = system: Pneumocystis carinii; assay: Randomized clinical trial of PCP prophylaxis (Example 8); type: in vivo, human
[4] = Adverse reactions and toxicity during PCP therapy (Example 3); conditions: inhaled pretreatment; 9 patients
[5] = human, in vivo; cited from earlier work

In the case of `NCCC[C@](N)(C(=O)O)C(F)F` [DFMO, α-difluoromethylornithine], the clinical response ([1]; recent clinical studies) is listed as “some clinical response” and the “efficacy in rat PCP model” value [2] is listed as “hot efficacious”.
With `Cc1cn([C@H]2C[C@H](N=[N+]=[N-])[C@@H](CO)O2)c(=O)[nH]c1=O` [zidovudine] the “reduction of PCP risk” value ([3]; AZT use, Cox models, with aerosolized pentamidine) was “two-fold” and the mortality ([3]; participants who had taken zidovudine, on aerosolized pentamidine, never taken: 67%) was 28%.
With `CC(C)NCC(O)c1cc(O)cc(O)c1` (stereo not drawn) [metaproterenol] the “control of aerosol-related cough” value [4] was “in 9 patients cough was mild and controlled”.
For `Nc1ccc(S(=O)(=O)c2ccc(N)cc2)cc1` [Dapsone, diaminodiphenylsulfone], the “failure rate for PCP” value ([1]; dapsone alone) is listed as “about 39%” and the “efficacy in rat PCP model” value [2] is listed as “effective”.
In the case of `COc1cc(NCc2ccc3nc(N)nc(N)c3c2C)cc(OC)c1OC` [trimetrexate], the “relapse rate within one month” value ([1]; human, in vivo) is listed as “relapse rates within one month appear to be high” and the adverse reactions [5] is listed as “Adverse reactions have been reported”.

Source: patent US5364615A (priority 1992, dated 1994)
